Reference: publication PMC11767423, “Design, Synthesis, and Antioxidant and Anti-Tyrosinase Activities of (Z)-5-Benzylidene-2-(naphthalen-1-ylamino)thiazol-4(5H)-one Analogs: In Vitro and In Vivo Insights” (Molecules, 2025)

Columns and labels:
[1] = tested on: B16F10 cells; test: In situ cellular tyrosinase activity assay (L-DOPA staining); assay type: cell-based; conditions: 20 μM; α-MSH + IBMX; 72 h, then L-DOPA 2 h
Procedure: The effect of 10 on cellular tyrosinase activity was investigated in situ using L-DOPA and B16F10 cells. This experimental method allows for the direct observation of cellular melanin production. […] After 72 h of incubation, the cells were treated with L-DOPA for 2 h to induce melanin production.
A 24-well plate containing 1 × 10^3 B16F10 cells per well was incubated at 37 °C for 24 h. […] After incubation for 72 h, the cells were fixed for 50 min using paraformaldehyde (4%), rinsed twice with PBS, and permeabilized for 2 min using Triton X-100 (0.1%). The cells were washed with PBS and 500 μL of 2 mM L-DOPA solution was added. After the cells were incubated at 37 °C for 2 h, stained images were obtained using a camera connected to a microscope (Motic, Hong Kong, China).

[2] = tested on: B16F10 cellular tyrosinase; test: Cellular tyrosinase activity assay in B16F10 cells; assay type: cell-based; conditions: 20 μM; α-MSH + IBMX; 72 h; stimulators alone 3.9-fold vs untreated control
Procedure: We analyzed the effect of 10 on B16F10 cellular tyrosinase activity to determine whether the ability of 10 inhibiting melanogenesis results from its ability to inhibit cellular tyrosinase activity.
A 6-well microplate containing 5 × 10^3 B16F10 cells per well was incubated at 37 °C for 24 h. Compound 10 was added to each well at 5, 10, and 20 μM and incubated for 1 h, and then stimulators (1 μM α-MSH and 200 μM IBMX) were added to each well before 72 h incubation.
To measure the cellular tyrosinase activity, the cells incubated for 72 h were washed 2 times with PBS, exposed to a 100 μL lysis buffer solution containing 5 μL 2 mM phenylmethylsulfonyl fluoride, 5 μL 20% Triton X-100, and 90 μL 50 mM phosphate buffer (pH 6.5), and cultivated for 30 min at −80 °C. After the lysates were centrifuged at 4 °C for 10 min at 10,000× g, an aliquot (80 μL) of the supernatants was added to each well of a 96-well microplate containing 20 μL of 10 mM L-DOPA. Data for the optical density at 475 nm were obtained every 1 min for 10 min at 37 °C using an ELISA reader to determine cellular tyrosinase activity.

[3] = tested on: B16F10 cells; test: Melanin content assay in B16F10 cells; assay type: cell-based; conditions: 20 μM; α-MSH + IBMX; 72 h; stimulators alone 3.9-fold
Procedure: After 72 h, the effect of compound 10 on melanin biosynthesis was determined. A 6-well microplate containing 5 × 10^3 B16F10 cells per well was incubated at 37 °C for 24 h. Compound 10 was added to each well at 5, 10, and 20 μM and incubated for 1 h, and then stimulators (1 μM α-MSH and 200 μM IBMX) were added to each well before 72 h incubation. […] For the melanin content quantification, the cells were lysed at 60 °C for 1 h in 100 μL 1N-NaOH solution containing 10% DMSO after washing 2 times with phosphate-buffered saline (PBS). The cell lysates were transferred to a 96-well microplate and the optical density was measured at 405 nm using an ELISA reader to calculate the melanin content in each well.

[4] = tested on: zebrafish larvae; test: Zebrafish depigmentation assay using zebrafish embryos; assay type: in vivo, Danio rerio; parameters: pigmentation of zebrafish larvae: dose or concentration left out as unconfirmed; conditions: treated at 28 hpf, read at 76 hpf
Procedure: Zebrafish embryos were used to determine whether the synthesized compounds could inhibit melanin synthesis in vivo. […] The degree of depigmentation in zebrafish larvae was confirmed by photography 48 h later (Figure 8A). The density of the zebrafish larvae was measured using a CS analyzer 3.2 (Atto, Tokyo, Japan). […] To obtain zebrafish (wild type, Danio rerio) eggs for the experiment, six male and nine female zebrafish were raised separately in oxygen-connected tanks. Dried brine shrimp (Artemia salina, San Francisco Bay Brand, San Francisco, CA, USA) were fed as food three times per day. They were raised at 28 °C with 10 h of light blocking and 14 h of light exposure. The evening before obtaining zebrafish eggs, three females and two males were placed together in three zebrafish mating cages, and the light was blocked. The following morning, mating was induced by exposure to light. Harvested zebrafish eggs, obtained free of charge from the Zebrafish Center for Disease Modeling (Chungnam National University, Daejeon, Republic of Korea), were kept in an E3 embryonic solution containing methylene blue (MB) until the dechorionation process was performed. […] The pigmented areas in the zebrafish larval photographs were determined using an ATTO CS analyzer 3.2 (Tokyo, Japan).

[5] = tested on: tyrosinase activity of zebrafish larvae; test: Tyrosinase activity in zebrafish larvae; assay type: in vivo, Danio rerio; conditions: 20 mM; 76 hpf
Procedure: To quantify the tyrosinase activity in zebrafish larvae, 60 zebrafish larvae at 76 hpf were divided into three Eppendorf tubes and centrifuged at 10,000× g for 10 min at 4 °C. After removing the supernatant, the residue was lysed using radioimmunoprecipitation assay buffer (100 μL) (Biosedang, Gyeonggi-do, Republic of Korea) and homogenized for 5 min using a sonicator. The lysate was centrifuged at 10,000× g for 10 min at 4 °C. The supernatants were transferred to a new Eppendorf tube and the protein content was quantified using a bicinchoninic acid protein assay kit (Thermo Fisher Scientific, Waltham, MA, USA). An aliquot (100 μL) of 1 mM L-DOPA was added to the new Eppendorf tube containing a total of 300 μg of protein in 100 μL of protein lysate. Eppendorf tubes were incubated for 1 h at 37 °C and then transferred to each well of a 96-well plate. The absorbance of each well was measured at 475 nm to determine the tyrosinase activity of zebrafish larvae.

[6] = Assay for ABTS+ radical scavenging; conditions: 100 μM
Procedure: The ABTS^+-scavenging efficacy of compounds 1–15 was determined by oxidizing ABTS with K2S2O8 to prepare ABTS^+. The prepared ABTS^+ solution was mixed with the test samples (1–15 and Trolox, a positive control) and the radical-scavenging efficacy of the test samples was explored by measuring the decrease in optical density at 732 nm. All test samples were tested at 100 μM.
To acquire ABTS^+ radicals, ABTS (14 mM in 20 mL H2O) was mixed with K2S2O8 (4.9 mM in 20 mL H2O), an oxidant agent, and stored at 22 °C in a place without light for 15 h. The absorbance of the prepared ABTS^+ radical solution was adjusted to 0.70 ± 0.01 at 732 nm by adding methanol. Test samples (Trolox [positive control] and 1–15) were dissolved in a co-solvent (DMSO:EtOH = 1:10 [v/v]). The diluted ABTS^+ radical solution (90 μL) was added to the test sample solution (10 μL) in each well of a 96-well plate and held at 22 °C in the dark for 2 min. The optical density of each well was recorded at 732 nm every 1 min for 10 min using an ELISA reader. The final concentration of test samples was 100 μM. %Radical-scavenging activity was determined using the formula 100 × [(Abscon − Abssam)/Abscon], where Abscon and Abssam represent the optical densities of the control and the samples, respectively.

[7] = Assay for ROS scavenging (SIN-1/DCFH); conditions: 40 μM sample; 10 μM SIN-1
Procedure: To assess the ability of compounds 1–15 to scavenge ROS, 2′,7′-dichlorodihydrofluorescein (DCFH) solution, which was obtained from hydrolysis of DCFH diacetate by esterase, was mixed with 3-morpholinosydnonimine (SIN-1), a ROS generator, and test samples (1–15 and Trolox, a positive material). ROS produces 2′,7′-dichlorofluorescein (DCF), a fluorescent material, by oxidizing DCFH. The ROS-scavenging activity of the samples was determined by measuring the fluorescence of DCF. The results were obtained at 10 μM SIN-1 and 40 μM sample.
To obtain 2′,7′-dichlorodihydrofluorescein (DCFH) solution, esterase (3 units/2 mL) was mixed with 2.5 mM DCFH diacetate and 50 mM phosphate buffer (pH 7.4). After incubating the mixture at 22 °C for 25 min, it was kept in the dark. 3-Morpholinosydnonimine (SIN-1) and compounds 1–15 were dissolved in phosphate buffer and DMSO, respectively. SIN-1 (10 µL) and compound (10 µL) were added to each well of a 96-well black plate containing phosphate buffer (180 µL), and the concentrations of SIN-1 and compound were 10 and 40 μM, respectively. Trolox (40 μM) was used as a positive material. […] To measure the fluorescence of 2′,7′-dichlorofluorescein at 535 nm, a microplate reader (Berthold Advances GmbH &Co., Bad Wildbad, Germany) was utilized with an excitation wavelength of 485 nm. […]

[8] = Assay for DPPH radical scavenging; conditions: 500 μM; 30 min in the dark
Procedure: To evaluate the DPPH radical-scavenging efficacy of 1–15, a DPPH methanol solution was mixed with compounds 1–15, and the mixture was left in the dark. After 30 min, the radical-scavenging efficacy of each compound was determined by measuring the optical density at 517 nm. Vitamin C (L-ascorbic acid) was used for comparing radical-scavenging activity, and all test samples were treated at 500 μM.
DPPH was dissolved in methanol to prepare a 0.2 mM solution, and test samples (vitamin C [L-ascorbic acid, LA; positive control] and 1–15) were dissolved in DMSO to prepare a 5 mM solution. The DPPH methanolic solution (180 μL) was added to the test sample DMSO solution (20 μL) in each well of a 96-well microplate and kept in a place without light for 30 min at 22 °C. Using a VersaMax™ ELISA reader, the optical density of each well was recorded at 517 nm to determine DPPH radical-scavenging activity.

Q: For `O=c1cc(CO)occ1O` [Kojic acid, reference compound], which “in situ melanin formation (L-DOPA staining)” value [1] is on record?
A: melanin production was suppressed compared with that in the group treated with only stimulators

Q: And the cellular tyrosinase activity [2]?
A: 3.3 fold

Q: And the stimulator-induced melanin content [3]?
A: 3.4 fold

Q: What about the “pigmentation of zebrafish larvae” value [4] of the same compound?
A: pigmentation of zebrafish larvae was reduced

Q: What about the “tyrosinase activity of zebrafish larvae” value [5] of the same compound?
A: significantly reduced tyrosinase activity

Q: What does the source list for `Cc1c(C)c2c(c(C)c1O)CCC(C)(C(=O)O)O2` (stereo not shown) [Trolox, reference compound]?
A: ABTS+ scavenging [6]: 99%; ROS-scavenging activity [7]: strong ROS-scavenging activity

Q: With `O=C1N=C(Nc2cccc3ccccc23)S/C1=C\c1ccc(O)c(O)c1` [Compound 8, (Z)-5-(3,4-Dihydroxybenzylidene)-2-(naphthalen-1-ylamino)thiazol-4(5H)-one] as the compound, how does the DPPH radical scavenging [8] read?
A: 77%

Q: And the “ABTS+ scavenging” value [6]?
A: 99%

Q: And the ROS-scavenging activity [7]?
A: very strong ROS-scavenging capacity, which was more potent than that of Trolox
